Test results from US5945507A, “Antimicrobial peptides” (University of Pittsburgh, priority 1997, dated 1999).
Entries after “also recorded” stand apart in the source; their conditions may differ. Read-outs that look alike come from different tables or passages of the source. Bridge positions count the residues as written; N and C are the ends. Ends that are not written are not given here. I, II: the chains in the order shown.

Tests used:
S. aureus [1] = type: cell-based, Staphylococcus aureus; conditions: for antibacterial activity (in words): S. aureus; for MBC50: in µM
Description: Bacterial lysis assay. Bacterial lysis assays were conducted in a manner similar to that described previously (Lehrer, R. I., M. E. Selsted, D. Szklarek, and F. J. 1983. Infect. Immun. 42:10-14, 1983; Miller, M. A., R. F. Garry, J. M. Jaynes, and R. C. Montelaro, AIDS Res Hum Retroviruses 7:511-519, 1991). Bacterial suspensions were cultured in Luria Broth to mid-log growth phase and washed by several cycles of centrifugation and resuspension in 10 mM phosphate buffer. The A600 of the suspension was adjusted with 10 mM phosphate buffer such that, upon dilution, 5-10×10^5 CFU/ml would be treated in the assay. Bacteria were incubated with two-fold dilutions of peptides (32-0.1 μM in 96-well plates in 10 mM phosphate buffer, pH 7.2, for 1 hour. Ten-fold dilutions were performed to a dilution of 1:1000; a 100-μl aliquot from each condition was plated on tryptic soy agar (Difco, Detroit, Mich.) and the plates were incubated overnight. Colonies of surviving bacteria (colony-forming units) were counted and compared to untreated controls to determine the amount of peptide-induced killing under each condition. Log killing is defined as the log of the ratio of CFUs present before and after treatment with peptide. Complete killing is indicated where there were zero colonies per 100-μl aliquot of undiluted bacteria-peptide mixture.
Calculation of MBC. […] The minimal bactericidal concentration, MBC, is the peptide concentration at which 99.9% (3 logs) killing is achieved (Pearson et al., Antimicrob. Agents Chemother. 18:699-708, 1980). The MBC50 is the peptide concentration at which 50% killing is achieved.

[2] = tested on: human red blood cells (RBC); type: cell-based; conditions: for hemolytic activity (in words): red blood cells; for hemolytic activity: red cells of human, 100 μM; for % lysis at 100 μM: erythrocytes, 100 μM peptide
Text: Erythrocyte Lysis Assay. Peptides were screened for hemolytic activity by treating freshly isolated human red blood cells (RBC) with various concentrations of peptides, centrifuging the samples to pellet intact cells, and measuring the amount of hemoglobin in the supernatant to determine the extent of RBC lysis under each condition. The method used is essentially that described by Srinivas et al. (J. Biol. Chem. 267:7121-7127, 1992) with the following modifications: peptide concentrations of 0.1-100 μM were tested, the incubation period was 1 hour at 37° C., and the A570 was measured in duplicate wells of a 96-well plate. A calibration curve was constructed by treating various amounts of red blood cells (0, 20,40, 60, 80, and 100% of the volume of RBC used in test samples) with plain water, which completely lyses the cells. The standard curve was used to calculate the percent lysis at each peptide concentration.

S. aureus [3] = assay: Kinetics of bacterial killing, S. aureus; type: cell-based, Staphylococcus aureus; conditions: 10 μM peptide, FIG. 5
Description: Kinetics of Bacterial Killing. The time course of the cytolytic activity of a peptide was determined by a modification of the above procedure, where a volume of appropriately diluted bacteria was treated with 1-10 μM peptide; aliquots of this mixture were removed every 10 seconds and diluted 1:2 in 2× Luria Broth; each resulting suspension was subsequently plated on agar as described above. The number of colonies visible upon incubation for each time point was used to calculate a rate of killing by the peptide.

[4] = Table 6, truncated analogs, 50% reduction of CFU/ml
[5] = Table 6, truncated analogs, 99.9% reduction of CFU/ml
[6] = Table 4, peptide concentration (closest 2-fold dilution) reducing CFU/ml by 50%
[7] = Table 4, peptide concentration (closest 2-fold dilution) reducing CFU/ml by 99.9%, 1 hour
[8] = Table 7, substitution analogs, 50% reduction of CFU/ml
[9] = Table 7, substitution analogs, 99.9% reduction of CFU/ml

Substance | antibacterial activity (in words) (S. aureus [1]) | hemolytic activity (in words) [2] | MBC50 (S. aureus [1]; [8]) | MBC (S. aureus [1]; [9]) [µM] | % lysis at 100 μM ([2]; Table 7) [%] | other results
GACRAIRHIPRRIR [LP14] | high level of antibacterial activity | virtually no hemolytic activity | – | – | – | MBC50 (S. aureus [1]; [4]): 2.5; MBC (S. aureus [1]; [5]): 10 µM; hemolytic activity [2]: less than 10%
RIAGYGLRGLAVIIRICIRGLNLIFEIIR [ELP, EIAV 808-836 (Wyoming)] | absence of measurable bactericidal activity; also recorded: little antibacterial activity | high hemolytic activity; also recorded: highly hemolytic | – | – | – | MBC50 (S. aureus [1]; [6]): > 10; MBC (S. aureus [1]; [7]): > 10 µM
I: RVIEVVQGACRAIRHIPRRIRQGLERIL / II: RVIEVVQGACRAIRHIPRRIRQGLERIL (disulfide I:10-II:10) [bis-LLP1] | – | – | – | – | – | % lysis at 100 μM ([2]; Table 8): 100%
FLIRQLIELLTWLFSNCRTLLSEVY [SLP2A1, engineered analog of SLP2A] | – | – | > 32 | > 32 | 7 | –
RVIEVVQGACRASRHIPRRIRQGLERIL [Peptide I840S, engineered analog of LLP1] | reduces antibacterial activity | significantly reduced | 2.5 | 10 to 20 | < 10 | –
RVIEVVQGACRAIEHIPRRIRQGLERIL [Peptide R841E, engineered analog of LLP1] | reducing both the antibacterial and hemolytic activity | reducing both the antibacterial and hemolytic activity | 10-20 | 40 to 80 | 30 | –
RVIEVVQGACRAIRHIPRRIRGQLERIL [LLP1-Am, LLP1 with chemically modified cysteine] | – | – | – | – | – | MBC50 (S. aureus [1]; Table 8, cysteine substitution analogs, 50% reduction of CFU/ml): 5; MBC (S. aureus [1]; Table 8, cysteine substitution analogs, 99.9% reduction of CFU/ml): 20 µM; % lysis at 100 μM ([2]; Table 8): 15%
VVQGACRAIRHIPRRIR [LP17] | high level of antibacterial activity | virtually no hemolytic activity | – | – | – | MBC50 (S. aureus [1]; [4]): 5; MBC (S. aureus [1]; [5]): 20 µM; hemolytic activity [2]: less than 10%
YHRLRDLLLIVTRIVELLGRR [LLP2, HIVHXB2R 768-788] | highly active | – | – | – | – | MBC50 (S. aureus [1]; [6]): 1; MBC (S. aureus [1]; [7]): 4 µM
FLIRQLIRLLTWLFSNCRTLLSRVY [SLP2A, SIVMM239 771-795] | highly active | rather hemolytic | – | – | – | MBC50 (S. aureus [1]; [6]): 4; MBC (S. aureus [1]; [7]): > 32 µM
RVIEVVQGACRAIEHIPRRIEQGLERIL [Analog 3, engineered analog of LLP1] | devoid of activity | devoid of activity | > 80 | > 80 | < 5 | –
RVIEVVQGACRAIRHIPRRIEQGLERIL [Peptide R848E, engineered analog of LLP1] | reducing both the antibacterial and hemolytic activity | reducing both the antibacterial and hemolytic activity | 20 | 80 | 10 | –
RVIEVVQGACRAIRHIPRRIRQGLERIL [LLP1] | – | Below 10 μM very little lysis is observed | – | – | – | killing within one minute (S. aureus [3]): over 99.99%; % lysis at 100 μM ([2]; Table 8): 100%; hemolytic LD50 ([2]; text b508): 20 to 40 µM
RVIEVVQGACRAIRHIPRRIR [LP21] | high level of antibacterial activity | virtually no hemolytic activity | – | – | – | MBC50 (S. aureus [1]; [4]): 2.5; MBC (S. aureus [1]; [5]): 10 µM; hemolytic activity [2]: less than 10%
LLSRVYQILQPILQRLSATLQRIREVLR [SLP2B, SIVMM239 790-817] | highly active | – | – | – | – | MBC50 (S. aureus [1]; [6]): .25; MBC (S. aureus [1]; [7]): 1 µM
RVIEVVQGACRAIRHIPRRSRQGLERIL [Peptide I847S, engineered analog of LLP1] | reduces antibacterial activity | significantly reduced | 5 | 20 | < 10 | –
LLSEVYQILQPILQELSATLQRIREVLR [SLP2B1, engineered analog of SLP2B] | – | – | > 32 | > 32 | 10 | –
RVIRVVQGACRAIRHIPRRIRQGLRRIL [Analog 5, engineered analog of LLP1] | very high antibacterial and hemolytic activity | very high antibacterial and hemolytic activity | 0.3 | 2.5 | 100 | –
DLWETLRRGGRWILAIPRRIRQGLELTL [SLP1] | – | – | – | – | – | MBC50 (S. aureus [1]; [6]): 8; MBC (S. aureus [1]; [7]): > 16 µM
